In patent publication US9034855B2, “Substituted phenylacetate and phenylpropane amides and use thereof” (Bayer Intellectual Property GmbH, priority 2010, dated 2015):

Columns and labels:
[1] = molecular target: T1, human V1a receptor (Homo sapiens, UniProt P37288); test: Cellular in vitro assay for determining the vasopressin receptor activity (aequorin luminescence, recombinant CHO cells), human V1a; assay type: cell-based; settings: CHO cells expressing aequorin, transfected with human V1a receptor; agonist [Arg8]-vasopressin; read-out: IC50 hV1a
T1 construct: expressed in transfected cells; host or cells: CHO K1 (ATCC), constitutively expressing modified aequorin
Description: (§1) B-1. Cellular In Vitro Assay for Determining the Vasopressin Receptor Activity
(§2) The identification of agonists and antagonists of the V1a and V2 vasopressin receptors from humans and rats and also the quantification of the activity of the substances described here takes place using recombinant cell lines. These cells derive originally from a hamster's ovary epithelial cell (Chinese Hamster Ovary, CHO K1, ATCC: American Type Culture Collection, Manassas, Va. 20108, USA). The test cell lines constitutively express a modified form of the calcium-sensitive photoprotein aequorin, which, after reconstitution with the cofactor coelenterazine, emits light when there are increases in the free calcium concentration (Rizzuto R., Simpson A. W., Brini M., Pozzan T.; Nature 358 (1992) 325-327). In addition, the cells are stably transfected with the human or rat V1a or V2 receptors. In the case of the Gs-coupling V2 receptors, the cells are stably transfected with a further gene, which codes for the promiscuous Gα16 protein (Amatruda T. T., Steele D. A., Slepak V. Z., Simon M A., Proc. Na. Acad. Sci. USA 88 (1991), 5587-5591), either independently or as a fusion gene. The resulting vasopressin receptor test cells react to stimulation of the recombinantly expressed vasopressin receptors by intracellular release of calcium ions, which can be quantified by the resulting aequorin luminescence using a suitable luminometer (Milligan G., Marshall F., Rees S., Trends in Pharmaco. Sci. 17 (1996) 235-237).
(§3) On the day before the assay, the cells are plated out in culture medium (DMEM, 10% FCS, 2 mM glutamine, 10 mM HEPES) in 384-well microtiter plates and kept in a cell incubator (96% atmospheric humidity, 5% v/v carbon dioxide, 37° C.). On the day of the assay, the culture medium is replaced by a Tyrode solution (140 mM sodium chloride, 5 mM potassium chloride, 1 mM magnesium chloride, 2 mM calcium chloride, 20 mM glucose, 20 mM HEPES), which additionally contains the cofactor coelenterazine (50 μM), and the microtiter plate is then incubated for a further 3-4 hours. The test substances in various concentrations are placed for 10 to 20 minutes in the wells of the microtiter plate before the agonist [Arg8]-vasopressin is added, and the resulting light signal is measured immediately in the luminometer. The IC50 values are calculated using the GraphPad PRISM computer program (Version 3.02).
(§4) Table A below lists representative IC50 values for the compounds according to the invention transfected with the human V1a or V2 receptor: […]

[2] = molecular target: T2, human V2 receptor (Homo sapiens, UniProt P30518); test: Cellular in vitro assay for determining the vasopressin receptor activity (aequorin luminescence, recombinant CHO cells), human V2; assay type: cell-based; settings: CHO cells expressing aequorin and Gα16, transfected with human V2 receptor; agonist [Arg8]-vasopressin; read-out: IC50 hV2
T2 construct: expressed in transfected cells; host or cells: CHO K1 (ATCC), constitutively expressing modified aequorin, co-transfected with promiscuous G-alpha-16
Description: as §1, §2, §3, §4

T1 sequence (P37288 whole entry): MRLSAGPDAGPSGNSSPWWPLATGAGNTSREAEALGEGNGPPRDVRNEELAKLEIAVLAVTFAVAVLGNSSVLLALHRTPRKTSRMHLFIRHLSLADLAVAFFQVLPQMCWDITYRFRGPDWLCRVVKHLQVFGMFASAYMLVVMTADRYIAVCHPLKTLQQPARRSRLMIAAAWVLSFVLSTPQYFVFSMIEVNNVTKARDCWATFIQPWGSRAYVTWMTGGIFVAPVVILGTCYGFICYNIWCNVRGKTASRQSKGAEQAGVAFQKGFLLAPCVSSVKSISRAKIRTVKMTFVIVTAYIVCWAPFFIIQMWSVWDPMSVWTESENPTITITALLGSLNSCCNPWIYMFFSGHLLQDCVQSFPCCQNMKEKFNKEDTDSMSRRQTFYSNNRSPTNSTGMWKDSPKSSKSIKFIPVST
T2 sequence (P30518 whole entry): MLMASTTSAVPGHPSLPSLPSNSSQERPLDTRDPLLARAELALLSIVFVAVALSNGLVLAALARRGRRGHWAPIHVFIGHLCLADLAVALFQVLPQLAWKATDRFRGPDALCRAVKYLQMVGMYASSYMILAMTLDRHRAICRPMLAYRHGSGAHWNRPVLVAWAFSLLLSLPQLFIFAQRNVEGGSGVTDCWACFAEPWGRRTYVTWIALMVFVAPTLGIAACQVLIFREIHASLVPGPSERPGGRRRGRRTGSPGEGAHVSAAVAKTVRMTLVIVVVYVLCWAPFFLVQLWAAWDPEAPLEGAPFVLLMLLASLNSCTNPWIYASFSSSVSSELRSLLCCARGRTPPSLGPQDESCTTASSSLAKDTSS

Row | IC50 [1] | IC50 [2] | Compound
1 | 3 nM | 144 nM | COCCNC(=O)C(NC(=O)Cn1nc(-c2ccc(Cl)cc2)n(C[C@H](O)C(F)(F)F)c1=O)c1ccccc1C(F)(F)F (stereo partly drawn) [Example 56, 2-[({3-(4-Chlorophenyl)-5-oxo-4-[(2S)-3,3,3-trifluoro-2-hydroxypropyl]-4,5-dihydro-1H-1,2,4-triazol-1-yl}acetyl)amino]-N-(2-methoxyethyl)-2-[2-(trifluoromethyl)phenyl]acetamide]
2 | 88.2 nM | 780 nM | CC(C)(NC(=O)C(NC(=O)Cn1nc(-c2ccc(Cl)cc2)n(Cc2ccccc2F)c1=O)c1cccc(Cl)c1Cl)C(N)=O (racemic) [Example 36, N^2-[({[3-(4-Chlorophenyl)-4-(2-fluorobenzyl)-5-oxo-4,5-dihydro-1H-1,2,4-triazol-1-yl]acetyl}-amino)(2,3-dichlorophenyl)acetyl]-2-methylalaninamide]
3 | 6 nM | 569 nM | O=C(C[C@H](NC(=O)Cn1nc(-c2ccc(Cl)cc2)n(C2CC2)c1=O)c1ccccc1C(F)(F)F)NCCO [Example 55, (3S)-3-({[3-(4-Chlorophenyl)-4-cyclopropyl-5-oxo-4,5-dihydro-1H-1,2,4-triazol-1-yl]acetyl}-amino)-N-(2-hydroxyethyl)-3-[2-(trifluoromethyl)phenyl]propanamide]
4 | 1.5 nM | 3.6 nM | CC(C)(CO)NC(=O)C(NC(=O)Cn1nc(-c2ccc(Cl)cc2)n(C[C@H](O)C(F)(F)F)c1=O)c1cccc(C(F)(F)F)c1 (single isomer, unassigned) [Example 41]
5 | 0.9 nM | 2.6 nM | O=C(C[C@H](NC(=O)Cn1nc(-c2ccc(Cl)cc2)n(C[C@H](O)C(F)(F)F)c1=O)c1ccccc1C(F)(F)F)NCCO [Example 53, (3S)-3-[({3-(4-Chlorophenyl)-5-oxo-4-[(2S)-3,3,3-trifluoro-2-hydroxypropyl]-4,5-dihydro-1H-1,2,4-triazol-1-yl}acetyl)amino]-N-(2-hydroxyethyl)-3-[2-(trifluoromethyl)phenyl]propanamide]
6 | 7.1 nM | 1270 nM | CC(C)(NC(=O)C(NC(=O)Cn1nc(-c2ccc(Cl)cc2)n(CCC(F)(F)F)c1=O)c1ccccc1C(F)(F)F)C(N)=O (racemic) [Example 32, N^2-{({[3-(4-Chlorophenyl)-5-oxo-4-(3,3,3-trifluoropropyl)-4,5-dihydro-1H-1,2,4-triazol-1-yl]acetyl}amino) [2-(trifluoromethyl)phenyl]acetyl}-2-methylalaninamide]
7 | 2.2 nM | 7.6 nM | O=C(Cn1nc(-c2ccc(Cl)cc2)n(C[C@H](O)C(F)(F)F)c1=O)NC(C(=O)NCCO)c1cccc(C(F)(F)F)c1 (stereo partly drawn) [Example 49, 2-[({3-(4-Chlorophenyl)-5-oxo-4-[(2S)-3,3,3-trifluoro-2-hydroxypropyl]-4,5-dihydro-1H-1,2,4-triazol-1-yl}acetyl)amino]-N-(2-hydroxyethyl)-2-[3-(trifluoromethyl)phenyl]acetamide]

The next lines start with the molecule.

Row | Compound | IC50 [1] | IC50 [2]
8 | COC(=O)CCNC(=O)C(NC(=O)Cn1nc(-c2ccc(Cl)cc2)n(C2CC2)c1=O)c1cccc(C(F)(F)F)c1 (racemic) [Example 15, Methyl N-{({[3-(4-chlorophenyl)-4-cyclopropyl-5-oxo-4,5-dihydro-1H-1,2,4-triazol-1-yl]acetyl}-amino) [3-(trifluoromethyl)phenyl]acetyl}-beta-alaninate] | 12 nM | 310 nM
9 | CCOC(=O)C1(NC(=O)C(NC(=O)Cn2nc(-c3ccc(Cl)cc3)n(C3CC3)c2=O)c2cccc(C(F)(F)F)c2)CC1 (racemic) [Example 5, Ethyl 1-({({[3-(4-chlorophenyl)-4-cyclopropyl-5-oxo-4,5-dihydro-1H-1,2,4-triazol-1-yl]acetyl}-amino) [3-(trifluoromethyl)phenyl]acetyl}amino)cyclopropanecarboxylate] | 42 nM | 1170 nM
10 | CC(C)(NC(=O)C(NC(=O)Cn1nc(-c2ccc(Cl)cc2)n(C[C@H](O)C(F)(F)F)c1=O)c1cccc(C(F)(F)F)c1)C(N)=O (single isomer, unassigned) [Example 28] | 1380 nM | 346 nM
11 | CC(C)(NC(=O)C(NC(=O)Cn1nc(-c2ccc(Cl)cc2)n(C[C@H](O)C(F)(F)F)c1=O)c1cccc(C(F)(F)F)c1)C(N)=O (single isomer, unassigned) [Example 29] | 1 nM | 3.3 nM
12 | CC(C)(NC(=O)[C@](C)(NC(=O)Cn1nc(-c2ccc(Cl)cc2)n(C[C@H](O)C(F)(F)F)c1=O)c1cccc(C(F)(F)F)c1)C(N)=O [Example 22, N^2-{(2R)-2-[({3-(4-Chlorophenyl)-5-oxo-4-[(2S)-3,3,3-trifluoro-2-hydroxypropyl]-4,5-dihydro-1H-1,2,4-triazol-1-yl}acetyl)amino]-2-[3-(trifluoromethyl)phenyl}propanoyl]-2-methylalaninamide] | 1.2 nM | 2.7 nM
13 | CCOC(=O)C1(NC(=O)C(NC(=O)Cn2nc(-c3ccc(Cl)cc3)n(C[C@H](O)C(F)(F)F)c2=O)c2cccc(C(F)(F)F)c2)CC1 (stereo partly drawn) [Example 1, Ethyl 1-({[({3-(4-chlorophenyl)-5-oxo-4-[(2S)-3,3,3-trifluoro-2-hydroxypropyl]-4,5-dihydro-1H-1,2,4-triazol-1-yl}acetyl)amino][3-(trifluoromethyl)phenyl]acetyl}amino)cyclopropanecarboxylate] | 9.2 nM | 58 nM
14 | COC(=O)C(C)(C)NC(=O)C(NC(=O)Cn1nc(-c2ccc(Cl)cc2)n(C2CC2)c1=O)c1cccc(C(F)(F)F)c1 (racemic) [Example 11, Methyl N-{({[3-(4-chlorophenyl)-4-cyclopropyl-5-oxo-4,5-dihydro-1H-1,2,4-triazol-1-yl]acetyl}-amino)[3-(trifluoromethyl)phenyl]acetyl}-2-methylalaninate] | 28 nM | 497 nM
